Converted amounts (≈) assume the structure as drawn.
System: Staphylococcus aureus (Isolate ID ATCC 29213)
Experiment: Bacterial assay: MIC by broth microdilution or agar dilution (CLSI), S. aureus ATCC 29213
Assay type: cell-based
Conditions: Staphylococcus aureus, ATCC29213, read-out: S. aureus MIC (μg/mL) Activity Range, S. aureus (ATCC29213)
Summary of the method: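 MICs by CLSI broth microdilution or agar dilution against S. aureus ATCC 29213 and its FtsZ-G196A mutant. Values reported as ranges: A ≤0.25 μg/mL, B >0.25–1.0, C >1.0–16, D >16 μg/mL.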

| SMILES | MIC [µg/mL] |
| --- | --- |
| NC(=O)c1c(F)ccc(OC(CNC(=O)Cc2cccnc2)c2nc(-c3ccc(C(F)(F)F)cc3)c(Br)o2)c1F (stereo not shown) [Compound 298, 3-(1-(5-bromo-4-(4-(trifluoromethyl)phenyl)oxazol-2-yl)-2-(2-(pyridin-3-yl)acetamido)ethoxy)-2,6-difluorobenzamide] | 1 to 16 (≈ 1.6 to 25.6 µM) |
| CC(Oc1ccc(F)c(C(N)=O)c1F)c1nc(-c2ccc(Cl)cc2)co1 (stereo not shown) [Compound 4] | 1 to 16 (≈ 2.64 to 42.2 µM) |
| NC(=O)c1c(F)ccc(OC(C(=O)O)c2coc(-c3ccc(C(F)(F)F)cc3)n2)c1F (stereo not shown) [Compound 132, 2-(3-carbamoyl-2,4-difluorophenoxy)-2-(2-(4-(trifluoromethyl)phenyl)oxazol-4-yl)acetic acid] | > 16 |
| Cn1ccnc1CNC(=O)OCC(Oc1ccc(F)c(C(N)=O)c1F)c1nc(-c2ccc(C(F)(F)F)cc2)c(Br)o1 (stereo not shown) [Compound 201, 2-(5-bromo-4-(4-(trifluoromethyl)phenyl)oxazol-2-yl)-2-(3-carbamoyl-2,4-difluorophenoxy)ethyl ((1-methyl-1H-imidazol-2-yl)methyl)carbamate] | 0.25 to 1 (≈ 0.388 to 1.55 µM) |
| C=CCc1oc(C(C)Oc2ccc(F)c(C(N)=O)c2F)nc1-c1ccc(OC(F)(F)F)cc1 (stereo not shown) [Compound 17, 3-(1-(5-allyl-4-(4-(trifluoromethoxy)phenyl)oxazol-2-yl)ethoxy)-2,6-difluorobenzamide] | 0.25 to 1 (≈ 0.534 to 2.14 µM) |
| C=CCc1oc(C(CCC)Oc2ccc(F)c(C(N)=O)c2F)nc1-c1ccc(Cl)cc1 (stereo not shown) [Compound 28] | 1 to 16 (≈ 2.24 to 35.8 µM) |
| NC(=O)c1c(F)ccc(OC(CO)c2nc(-c3ccc(Cl)cc3)c(Cl)o2)c1F (stereo not shown) [Compound 47, 3-(1-(5-chloro-4-(4-chlorophenyl)oxazol-2-yl)-2-hydroxyethoxy)-2,6-difluorobenzamide] | 0.25 to 1 (≈ 0.582 to 2.33 µM) |
| CCC(Oc1ccc(F)c(C(N)=O)c1F)c1nc(CCO)oc1Br (stereo not shown) [Compound 122, 3-(1-(5-bromo-2-(2-hydroxyethyl)oxazol-4-yl)propoxy)-2,6-difluorobenzamide] | > 16 |
| CCCc1oc(C(C)Oc2ccc(F)c(C(N)=O)c2F)nc1-c1ccc(Cl)cc1 (stereo not shown) [Compound 19] | 0.25 to 1 (≈ 0.594 to 2.38 µM) |
| CC(=O)OCC(Oc1ccc(F)c(C(N)=O)c1F)c1nc(-c2ccc(-c3noc(C)n3)cc2)c(Br)o1 (stereo not shown) [Compound 82, 2-(5-bromo-4-(4-(5-methyl-1,2,4-oxadiazol-3-yl)phenyl)oxazol-2-yl)-2-(3-carbamoyl-2,4-difluorophenoxy)ethyl acetate] | 1 to 16 |
| COc1cc(Cl)c(Br)cc1-c1nc(C(CO)Oc2ccc(F)c(C(N)=O)c2F)oc1Br (stereo not shown) [Compound 232, 3-(1-(5-bromo-4-(5-bromo-4-chloro-2-methoxyphenyl)oxazol-2-yl)-2-hydroxyethoxy)-2,6-difluorobenzamide] | 1 to 16 (≈ 1.72 to 27.5 µM) |
| Cc1nccn1CCNC(=O)OCC(Oc1ccc(F)c(C(N)=O)c1F)c1nc(-c2ccc(C(F)(F)F)cc2)c(Br)o1 (stereo not shown) [Compound 190, 2-(5-bromo-4-(4-(trifluoromethyl)phenyl)oxazol-2-yl)-2-(3-carbamoyl-2,4-difluorophenoxy)ethyl (2-(2-methyl-1H-imidazol-1-yl)ethyl)carbamate] | 1 to 16 (≈ 1.52 to 24.3 µM) |
| CCOC(=O)CNC(=O)OCC(Oc1ccc(F)c(C(N)=O)c1F)c1nc(-c2ccc(C(F)(F)F)cc2)c(Br)o1 (stereo not shown) [Compound 140, ethyl 2-(((2-(5-bromo-4-(4-(trifluoromethyl)phenyl)oxazol-2-yl)-2-(3-carbamoyl-2,4-difluorophenoxy)ethoxy)carbonyl)amino)acetate] | 0.25 to 1 (≈ 0.393 to 1.57 µM) |
| NC(=O)c1c(F)ccc(O[C@H](CO)c2nc(-c3ccc(Cl)s3)c(Br)o2)c1F [Compound 250B, (R)-3-(1-(5-bromo-4-(5-chlorothiophen-2-yl)oxazol-2-yl)-2-hydroxyethoxy)-2,6-difluorobenzamide] | < 0.25 |
| NC(=O)c1c(F)ccc(OC(CO)c2nc(-c3ccc(C(F)(F)F)cn3)c(Br)o2)c1F (stereo not shown) [Compound 79, 3-(1-(5-bromo-4-(5-(trifluoromethyl)pyridin-2-yl)oxazol-2-yl)-2-hydroxyethoxy)-2,6-difluorobenzamide] | 1 to 16 (≈ 1.97 to 31.5 µM) |
| CNc1ccc(-c2nc(C(CO)Oc3ccc(F)c(C(N)=O)c3F)oc2Br)cn1 (stereo not shown) [Compound 224, 3-(1-(5-bromo-4-(6-(methylamino)pyridin-3-yl)oxazol-2-yl)-2-hydroxyethoxy)-2,6-difluorobenzamide] | > 16 |
| CCc1nc([C@@H](CO)Oc2ccc(F)c(C(N)=O)c2F)oc1Br [Compound 275B, (R)-3-(1-(5-bromo-4-ethyloxazol-2-yl)-2-hydroxyethoxy)-2,6-difluorobenzamide] | > 16 |
| NC(=O)c1c(F)ccc(OC(COC(=O)CCC(=O)O)c2nc(-c3ccc(F)cc3F)c(Br)o2)c1F (stereo not shown) [Compound 263, 4-(2-(5-bromo-4-(2,4-difluorophenyl)oxazol-2-yl)-2-(3 carbamoyl-2,4-difluorophenoxy)ethoxy)-4-oxobutanoic acid] | 1 to 16 (≈ 1.74 to 27.8 µM) |
| NC(=O)c1c(F)ccc(O[C@H](CO)c2nc3cc(Cl)cnc3s2)c1F [Compound 266B, (R)-3-(1-(6-chlorothiazolo[5,4-b]pyridin-2-yl)-2-hydroxyethoxy)-2,6-difluorobenzamide] | 1 to 16 (≈ 2.59 to 41.5 µM) |

| SMILES | MIC [µg/mL] |
| --- | --- |
| N#Cc1ccc(-c2nc(C(CO)Oc3ccc(F)c(C(N)=O)c3F)oc2Br)s1 (stereo not shown) [Compound 236, 3-(1-(5-bromo-4-(5-cyanothiophen-2-yl)oxazol-2-yl)-2-hydroxyethoxy)-2,6-difluorobenzamide] | 0.25 to 1 (≈ 0.532 to 2.13 µM) |
| CNC(=O)C(Oc1ccc(F)c(C(N)=O)c1F)c1nc(-c2ccc(Cl)cc2)cs1 (stereo not shown) [Compound 34, 3-(1-(4-(4-chlorophenyl)thiazol-2-yl)-2-(methylamino)-2-oxoethoxy)-2,6-difluorobenzamide] | < 0.25 |
| CCOC(=O)C(Oc1ccc(F)c(C(N)=O)c1F)c1nc(-c2ccc(Cl)cc2)cs1 (stereo not shown) [Compound 11, ethyl 2-(3-carbamoyl-2,4-difluorophenoxy)-2-(4-(4-chlorophenyl)thiazol-2-yl)acetate] | < 0.25 |
| CNC(=O)CC(Oc1ccc(F)c(C(N)=O)c1F)c1nc(-c2ccc(C(F)(F)F)cc2)c(Br)o1 (stereo not shown) [Compound 87, 3-(1-(5-bromo-4-(4-(trifluoromethyl)phenyl)oxazol-2-yl)-3-(methylamino)-3-oxopropoxy)-2,6-difluorobenzamide] | 0.25 to 1 (≈ 0.456 to 1.82 µM) |
| NC(=O)c1c(F)ccc(OC(CO)c2nc(-c3cccs3)c(Br)o2)c1F (stereo not shown) [Compound 243, 3-(1-(5-bromo-4-(thiophen-2-yl)oxazol-2-yl)-2-hydroxyethoxy)-2,6-difluorobenzamide] | 1 to 16 (≈ 2.25 to 35.9 µM) |
| CN1CCN(C(=O)C(Oc2ccc(F)c(C(N)=O)c2F)c2nc(-c3ccc(Cl)cc3)cs2)CC1 (stereo not shown) [Compound 41, 3-(1-(4-(4-chlorophenyl)thiazol-2-yl)-2-(4-methylpiperazin-1-yl)-2-oxoethoxy)-2,6-difluorobenzamide] | 1 to 16 (≈ 1.97 to 31.6 µM) |
| NC(=O)c1c(F)ccc(O[C@H](CO)c2nc(-c3ccc(F)cc3)co2)c1F [Compound 278B, (R)-2,6-difluoro-3-(1-(4-(4-fluorophenyl)oxazol-2-yl)-2-hydroxyethoxy)benzamide] | > 16 |
| C=CCOP(=O)(O)OCC(Oc1ccc(F)c(C(N)=O)c1F)c1nc(-c2ccc(C(F)(F)F)cc2)c(Br)o1 (stereo not shown) [Compound 75, allyl (2-(5-bromo-4-(4-(trifluoromethyl)phenyl)oxazol-2-yl)-2-(3-carbamoyl-2,4-difluorophenoxy)ethyl) hydrogen phosphate] | > 16 |
| NC(=O)c1c(F)ccc(OC(CO)c2nc(-c3ccc(Cl)cc3)cs2)c1F (stereo not shown) [Compound 13, 3-(1-(4-(4-chlorophenyl)thiazol-2-yl)-2-hydroxyethoxy)-2,6-difluorobenzamide] | 0.25 to 1 (≈ 0.609 to 2.43 µM) |
| CCC(Oc1ccc(F)c(C(N)=O)c1F)c1nc(CCOC(C)=O)oc1Br (stereo not shown) [Compound 121, 2-(5-bromo-4-(1-(3-carbamoyl-2,4-difluorophenoxy)propyl)oxazol-2-yl)ethyl acetate] | > 16 |
| NC(=O)c1c(F)ccc(OC(CO)c2nc(-c3ccc(C(F)(F)F)cc3)sc2Br)c1F (stereo not shown) [Compound 131, 3-(1-(5-bromo-2-(4-(trifluoromethyl)phenyl)thiazol-4-yl)-2-hydroxyethoxy)-2,6-difluorobenzamide] | > 16 |
| CN(C)CCC(Oc1ccc(F)c(C(N)=O)c1F)c1nc(-c2ccc(C(F)(F)F)cc2)c(Br)o1 (stereo not shown) [Compound 98, 3-(1-(5-bromo-4-(4-(trifluoromethyl)phenyl)oxazol-2-yl)-3-(dimethylamino)propoxy)-2,6-difluorobenzamide] | 1 to 16 (≈ 1.82 to 29.2 µM) |
| COc1ccc(-c2nc(C(CO)Oc3ccc(F)c(C(N)=O)c3F)oc2Br)nc1 (stereo not shown) [Compound 238, 3-(1-(5-bromo-4-(5-methoxypyridin-2-yl)oxazol-2-yl)-2-hydroxyethoxy)-2,6-difluorobenzamide] | > 16 |
| COCCOc1ccc(-c2nc(C(CO)Oc3ccc(F)c(C(N)=O)c3F)oc2Br)cc1 (stereo not shown) [Compound 242, 3-(1-(5-bromo-4-(4-(2-methoxyethoxy)phenyl)oxazol-2-yl)-2-hydroxyethoxy)-2,6-difluorobenzamide] | 1 to 16 (≈ 1.95 to 31.2 µM) |
| CS(=O)(=O)NCC(Oc1ccc(F)c(C(N)=O)c1F)c1nc(-c2ccc(C(F)(F)F)cc2)co1 (stereo not shown) [Compound 284, 2,6-difluoro-3-(2-(methylsulfonamido)-1-(4-(4-(trifluoromethyl)phenyl)oxazol-2-yl)ethoxy)benzamide] | > 16 |
| CNC(=O)CCC(Oc1ccc(F)c(C(N)=O)c1F)c1nc(-c2ccc(C(F)(F)F)cc2)c(Br)o1 (stereo not shown) [Compound 93, 3-(1-(5-bromo-4-(4-(trifluoromethyl)phenyl)oxazol-2-yl)-4-(methylamino)-4-oxobutoxy)-2,6-difluorobenzamide] | 0.25 to 1 (≈ 0.445 to 1.78 µM) |
| NC(=O)c1c(F)ccc(O[C@H](CO)c2nc(-c3ccc(OC(F)F)cc3)co2)c1F [Compound 274B, (R)-3-(1-(4-(4-(difluoromethoxy)phenyl)oxazol-2-yl)-2-hydroxyethoxy)-2,6-difluorobenzamide] | 1 to 16 (≈ 2.35 to 37.5 µM) |
| COc1ccc(-c2nc(C(CO)Oc3ccc(F)c(C(N)=O)c3F)oc2Br)cc1 (stereo not shown) [Compound 112, 3-(1-(5-bromo-4-(4-methoxyphenyl)oxazol-2-yl)-2-hydroxyethoxy)-2,6-difluorobenzamide] | 1 to 16 (≈ 2.13 to 34.1 µM) |

From US9511073B2, “Aromatic amides and uses thereof” (TAXIS Pharmaceuticals, Inc., priority 2011, dated 2016)
